# Laboratory results reported in patent publication US8871900B2, “Fibroblast growth factor (FGF) analogs and uses thereof” (University of Rochester, priority 2008, dated 2014).
# Peptide text beside a SMILES is read from it.
# Key:
# BM cells [1] = assay: BM cell growth in round-bottom 96 well 2 D culture (CyQUANT); assay type: cell-based, mouse (Balb/c); settings: FGF-P 500 ng/ml
# Source text: (§1) Survival of ARS depends on rapid reconstitution of hematopoiesis after IR-induced myelosuppression. […] However, the timing and mechanism of effect on BM stem cells is unknown. Also unclear are the number of FGFRs on hematopoietic stem cells (HSCs) and their role in reconstitution after IR. […] To characterize the effects of FGF-P on BM, the study approach was to obtain fresh BM (including both HSCs and MSCs) from Balb/c mice, and culture it under varying conditions (3 D culture or 2 D round-bottom well) in triplicate for 1-3 weeks. The BM cells were stimulated with FGF-P at different doses (as test) or with EPO, TPO, GM-CSF or native FGF2 (as a positive control). The cultures were examined using several methods including colony count, photography, CyQUANT® assay and ^3H-TdR incorporation.
# BM cells [2] = assay: 3H-TdR incorporation of normal and irradiated (0.5 Gy) BM cells; assay type: cell-based, mouse
# Procedure: To determine if BM cells damaged by IR still responded to FGF-P, cells were plated in 96 round-bottom wells with serum-free ultraDoma-PF media and equally divided into two parts; one was not irradiated as control, and the other was irradiated with 0.5 Gy. They were then treated with equal amount of test agents within 1 hour post-IR. The following day, 0.2 uCi/well of ^3H-TdR was added and they were further cultured for 4 days before harvesting with a 96 well automatic harvester. […] There was no response to EPO.
# [3] = tested on: mice exposed to sub-TBI (GI syndrome); assay: Survival after sub-TBI (GI syndrome / AGS model); assay type: in vivo, mouse (Balb/c, C57BL/6, C3H/HeN)
# Source text: A sub-TBI (total body irradiation) model was created, in which one leg of mouse is shielded from the direct radiation field. With this system, 8.5 Gy can be delivered to Balb/c mice without BM deaths (defined as deaths that occur between 10 and 30 days). When sub-TBI dose was increased to 9 Gy, half the irradiated mice die, and at 10.5 Gy, 66-100% mice died within 5-7 days. Pathologically these mice have devastating gut damage. In our GI (sub-TBI) model, the LD50/7 for Balb/c mice (6-8 week old from NCI) was 8.9-9.1 Gy. Using this GI model, the mitigation effect of FGF-P on the GI syndrome was tested. FGF-P (2 mg/kg) was given im 5-10 minutes after IR and continued once a day for 3-5 consecutive days. Each animal experiment had its own vehicle mock treatment group as control.
# When the sub-TBI dose is raised to 10.5 or 11 Gy, 100% of the untreated control mice died of GI syndrome, while 33-67% of mice treated with FGF-P survived 3.5 months, FIGS. 2B and 2C). When the IR dose was raised to 12 Gy, all control animals died and 17% of FGF-P treated mice survived (FIG. 2D). […] Additionally, many of the animals that do die, do so later than mice not treated with FGF-P.
# Native FGF-2 has a mouse strain dependent response profile. Most strains enjoy a benefit, but responses in C57 mice have been unimpressive. To determine if the agent works in mice with different genomic backgrounds, FGF-P (2 mg/kg) was given to C57BL/6 mice 10 min after the mice were exposed to 16 Gy sub-TBI. […] A third strain of mouse, C3H/HeN (LD50/7 about 12 Gy), was also studied. At 12.5 Gy sub-TBI, 33% of control mice survived while 50% of mice treated with FGF-P survived. At 13.5 Gy, all the control mice died within 7 days, while 50% of FGF-P treated mice survived (FIG. 3B). Thus unlike native FGF the bioavailability or bioeffect of FGF-P seems to be strain independent.
# platelet = assay: Platelet aggregation after 4 Gy TBI; assay type: in vivo, mouse; settings: day 29 after 4 Gy TBI; FGF-P right post-IR daily for 6 day; P<0.05
# Source text: One of the major functions of platelet is to aggregate on the wounded site as first step to block the bleeding vessel. […] This recovery is statistically different (FIG. 18D P<0.05).
# [4] = Tail vein bleeding time after 4 Gy TBI; assay type: in vivo, mouse; settings: 10 days after 4 Gy TBI; FGF-P 15 mg/kg daily for 3 days then every other day for 3 times
# Source text: The bleeding is stopped by coagulant cascade, mainly the platelet aggregation, the vessel contraction and thrombosis which are trigged by the released platelet granules (Francis 2007, Khorana 2005). IR blocks the megakaryocytopoiesis and reduces the thrombocytopoiesis (an imbalance between the synthesis and consuming of coagulant proteins), which leads to a prolonged bleeding time. To determine if FGF-P has any effect on the bleeding time, the a single tail vein at the same anatomy position was cut in same depth and merged into 37° C. warm water, the time between bleeding and stopping was recorded. The test was performed on 10 days after 4 Gy TBI.
# [5] = tested on: BM cells (megakaryocyte colony); assay: Megakaryocyte colony formation of BM cells (MegaCult-C); assay type: cell-based, mouse (Balb/c); settings: cytokine cocktail reduced to 50%; FGF-P 100 ng/ml
# Source text: as §1
# Cdc42, Rac1, Mapk10, Cfl = assay: Gene expression in irradiated BM cells (Luminex multiplex array); assay type: cell-based, mouse; settings: treatment 20 min after 5 Gy IR, 6 hours, P<0.05
structure (smiles),measurement,setting,value
"CC(C)C[C@H](NC(=O)[C@H](C)NC(=O)[C@@H](NC(=O)[C@H](Cc1ccc(O)cc1)NC(=O)[C@H](Cc1c[nH]c2ccccc12)NC(=O)[C@H](CO)NC(=O)[C@H](CO)NC(=O)[C@H](Cc1ccc(O)cc1)NC(=O)[C@H](CCCCN)NC(=O)[C@H](CCCNC(=N)N)NC(=O)[C@H](CO)NC(=O)[C@H](CCCNC(=N)N)NC(=O)[C@H](Cc1ccc(O)cc1)NC(=O)[C@@H](N)CS)C(C)C)C(=O)N[C@@H](CCCCN)C(=O)N[C@@H](CCCNC(=N)N)C(=O)N[C@@H](CS)C(=O)O [FGF-P, CYRSRKYSSWYVALKRC] (H-CYRSRKYSSWYVALKRC-OH; N-terminus and C-terminus assumed)",growth of BM cells,BM cells [1],"stimulated the growth of BM cells in a similar pattern as TPO, EPO and GM-CSF"
same,response of irradiated BM cells,"BM cells [2]; 0.5 Gy, treated within 1 hour post-IR, 3H-TdR",in the same fashion as normal BM cells
same,order of responsiveness,"BM cells [2]; 3H-TdR incorporation, serum-free media","FGF-P (250-500 ng/ml)>native FGF2 (50 ng/ml), GM-CSF and TPO (100 ng/ml)"
same,dose dependence of stimulatory effect,BM cells [2]; normal and 0.5 Gy irradiated BM cells,dose-dependent
same,mice still alive,"[3]; Balb/c, 10 Gy sub-TBI, at 4 months, FGF-P 2 mg/kg im 5-10 min after IR, daily 3-5 days",87%
same,mice survived,"[3]; Balb/c, 10.5 or 11 Gy sub-TBI, 3.5 months, FGF-P 2 mg/kg im",33-67%
same,mice survived,"[3]; Balb/c, 12 Gy sub-TBI, FGF-P 2 mg/kg im",17%
same,mice survived,"[3]; C3H/HeN, 12.5 Gy sub-TBI",50%
same,mice survived,"[3]; C3H/HeN, 13.5 Gy sub-TBI",50%
same,mice still alive,"[3]; C57BL/6, 16 Gy sub-TBI, at 1.5 months, FGF-P 2 mg/kg 10 min after IR",33%
same,long-term survival,"[3]; C57BL/6, 16 Gy sub-TBI, over 2.5 months",33%
same,platelet aggregation,platelet,recovered towards normal
same,bleeding time,[4],shorter bleeding time
same,megakaryocyte colony formation,[5],greatly stimulated the formation of megakaryocyte colony to the level as native FGF2
same,expression of Cdc42,"Cdc42, Rac1, Mapk10, Cfl",reversed the IR-suppressed expression
same,expression of Cfl (cofilin 1),"Cdc42, Rac1, Mapk10, Cfl",suppressed towards normal
same,expression of Mapk10,"Cdc42, Rac1, Mapk10, Cfl",suppressed towards normal
same,expression of Rac1,"Cdc42, Rac1, Mapk10, Cfl",reversed the IR-suppressed expression
